ChEMBL document CHEMBL1649156, “Antianaerobic activity of sulopenem compared to six other agents” (2009)
≈ marks a conversion by molar mass, not a printed value.

What was measured:
Type in all cases: functional
Finegoldia magna = assay: Antimicrobial activity in Finegoldia magna by CLSI agar dilution method
Bacteroides fragilis = assay: Antimicrobial activity in Bacteroides fragilis by CLSI agar dilution method
Clostridium sp. = assay: Antimicrobial activity in Clostridium sp. by CLSI agar dilution method
Prevotella veroralis = assay: Antimicrobial activity in Prevotella veroralis by CLSI agar dilution method
Clostridium butyricum = assay: Antimicrobial activity in Clostridium butyricum by CLSI agar dilution method
Porphyromonas gingivalis = assay: Antimicrobial activity in Porphyromonas gingivalis by CLSI agar dilution method
Fusobacterium varium = assay: Antimicrobial activity in Fusobacterium varium by CLSI agar dilution method
Fusobacterium nucleatum = assay: Antimicrobial activity in Fusobacterium nucleatum by CLSI agar dilution method
Actinomyces = assay: Antimicrobial activity in Actinomyces by CLSI agar dilution method
Tissierella praeacuta = assay: Antimicrobial activity in Clostridium hastiforme by CLSI agar dilution method
Prevotella disiens = assay: Antimicrobial activity in Prevotella disiens by CLSI agar dilution method
Bacteroides ovatus = assay: Antimicrobial activity in Bacteroides ovatus by CLSI agar dilution method
Anaerococcus prevotii = assay: Antimicrobial activity in Anaerococcus prevotii by CLSI agar dilution method
[1] = test system: Prevotella melaninogenica; assay: Antimicrobial activity in Prevotella melaninogenica by CLSI agar dilution method
Prevotella intermedia = assay: Antimicrobial activity in Prevotella intermedia by CLSI agar dilution method
Prevotella denticola = assay: Antimicrobial activity in Prevotella denticola by CLSI agar dilution method
[2] = test system: Parabacteroides distasonis; assay: Antimicrobial activity in Bacteroides distasonis by CLSI agar dilution method
Prevotella sp. = assay: Antimicrobial activity in Prevotella sp.by CLSI agar dilution method
Bacteroides stercoris = assay: Antimicrobial activity in Bacteroides stercoris by CLSI agar dilution method
Prevotella bergensis = assay: Antimicrobial activity in Prevotella bergensis by CLSI agar dilution method; details: Hallella bergensis
Anaerococcus tetradius = assay: Antimicrobial activity in Anaerococcus tetradius by CLSI agar dilution method
Clostridioides difficile = assay: Antimicrobial activity in Clostridium difficile by CLSI agar dilution method
Prevotella nigrescens = assay: Antimicrobial activity in Prevotella nigrescens by CLSI agar dilution method
Parvimonas micra = assay: Antimicrobial activity in Micromonas micros by CLSI agar dilution method
Clostridium tertium = assay: Antimicrobial activity in Clostridium tertium by CLSI agar dilution method
[3] = test system: Peptoniphilus asaccharolyticus; assay: Antimicrobial activity in Peptoniphilus asaccharolyticus by CLSI agar dilution method
Eggerthella lenta = assay: Antimicrobial activity in Eggerthella lenta by CLSI agar dilution method
[Clostridium] innocuum = Antimicrobial activity in Clostridium innocuum by CLSI agar dilution method
[4] = test system: Fusobacterium necrophorum; assay: Antimicrobial activity in Fusobacterium necrophorum by CLSI agar dilution method
Hoylesella loescheii = assay: Antimicrobial activity in Prevotella loescheii by CLSI agar dilution method
Thomasclavelia ramosa = assay: Antimicrobial activity in Clostridium ramosum by CLSI agar dilution method
[5] = test system: Paraclostridium bifermentans; assay: Antimicrobial activity in Clostridium bifermentans by CLSI agar dilution method
Hoylesella oralis = assay: Antimicrobial activity in Prevotella oralis group by CLSI agar dilution method
Prevotella buccae = assay: Antimicrobial activity in Prevotella buccae by CLSI agar dilution method; details: Segatella buccae
Clostridium cadaveris = assay: Antimicrobial activity in Clostridium cadaveris by CLSI agar dilution method
Clostridium perfringens = assay: Antimicrobial activity in Clostridium perfringens by CLSI agar dilution method
[6] = test system: Paeniclostridium sordellii; assay: Antimicrobial activity in Clostridium sordellii by CLSI agar dilution method; details: Paraclostridium sordellii
[7] = test system: Peptostreptococcus anaerobius; assay: Antimicrobial activity in Peptostreptococcus anaerobius by CLSI agar dilution method
[8] = test system: Enterocloster clostridioformis; assay: Antimicrobial activity in Clostridium clostridioforme by CLSI agar dilution method
Lactobacillus = assay: Antimicrobial activity in Lactobacillus by CLSI agar dilution method
Bacteroides uniformis = assay: Antimicrobial activity in Bacteroides uniformis by CLSI agar dilution method
Prevotella bivia = assay: Antimicrobial activity in Prevotella bivia by CLSI agar dilution method
Prevotella salivae = assay: Antimicrobial activity in Prevotella salivae by CLSI agar dilution method; details: Segatella salivae
Prevotella corporis = assay: Antimicrobial activity in Prevotella corporis by CLSI agar dilution method
Phocaeicola vulgatus = assay: Antimicrobial activity in Bacteroides vulgatus by CLSI agar dilution method
Fusobacterium mortiferum = assay: Antimicrobial activity in Fusobacterium mortiferum by CLSI agar dilution method
Bifidobacterium = assay: Antimicrobial activity in Bifidobacterium by CLSI agar dilution method
[9] = test system: Bacteroides thetaiotaomicron; assay: Antimicrobial activity in Bacteroides thetaiotaomicron by CLSI agar dilution method

What does the source list for `CCC[C@@H]1C[C@@H](C(=O)N[C@@H]([C@H]2O[C@H](SC)[C@H](O)[C@@H](O)[C@H]2O)[C@H](C)Cl)N(C)C1` [CLINDAMYCIN]?
MIC50 (Finegoldia magna): 0.125 µg/mL (≈ 0.294 µM); MIC90 (Finegoldia magna): 2 µg/mL (≈ 4.71 µM); MIC50 (Bacteroides fragilis): 1 µg/mL (≈ 2.35 µM); MIC90 (Bacteroides fragilis): > 32 µg/mL; MIC50 (Clostridium sp.): 1 µg/mL (≈ 2.35 µM); MIC90 (Clostridium sp.): 16 µg/mL (≈ 37.6 µM); MIC (Prevotella veroralis): ≤ 0.016 µg/mL; MIC (Clostridium butyricum): 2 µg/mL (≈ 4.71 µM); MIC (Porphyromonas gingivalis): ≤ 0.016 µg/mL; MIC50 (Fusobacterium varium): 8 µg/mL (≈ 18.8 µM); MIC90 (Fusobacterium varium): 32 µg/mL (≈ 75.3 µM); MIC50 (Fusobacterium nucleatum): 0.06 µg/mL (≈ 0.141 µM); MIC90 (Fusobacterium nucleatum): 0.125 µg/mL (≈ 0.294 µM); MIC (Actinomyces): 0.03 µg/mL (≈ 0.0706 µM); MIC50 (Actinomyces): 0.125 µg/mL (≈ 0.294 µM); MIC (Tissierella praeacuta): 0.06 µg/mL (≈ 0.141 µM); MIC (Prevotella disiens): ≤ 0.016 µg/mL; MIC50 (Prevotella disiens): ≤ 0.016 µg/mL; MIC50 (Bacteroides ovatus): 2 µg/mL (≈ 4.71 µM); MIC90 (Bacteroides ovatus): > 32 µg/mL; MIC (Anaerococcus prevotii): 0.125 µg/mL (≈ 0.294 µM); MIC [1]: ≤ 0.016 µg/mL; MIC50 [1]: ≤ 0.016 µg/mL; MIC90 [1]: 0.06 µg/mL (≈ 0.141 µM); MIC (Prevotella intermedia): ≤ 0.016 µg/mL; MIC50 (Prevotella intermedia): ≤ 0.016 µg/mL; MIC90 (Prevotella intermedia): ≤ 0.016 µg/mL; MIC (Prevotella denticola): ≤ 0.016 µg/mL; MIC50 (Prevotella denticola): ≤ 0.016 µg/mL; MIC90 (Prevotella denticola): 0.06 µg/mL (≈ 0.141 µM); MIC50 [2]: 4 µg/mL (≈ 9.41 µM); MIC90 [2]: 16 µg/mL (≈ 37.6 µM); MIC (Prevotella sp.): ≤ 0.016 µg/mL; MIC (Bacteroides stercoris): > 4 µg/mL; MIC50 (Bacteroides stercoris): 8 µg/mL (≈ 18.8 µM); MIC (Prevotella bergensis): ≤ 0.016 µg/mL; MIC50 (Anaerococcus tetradius): 0.5 µg/mL (≈ 1.18 µM); MIC90 (Anaerococcus tetradius): 1 µg/mL (≈ 2.35 µM); MIC50 (Clostridioides difficile): 4 µg/mL (≈ 9.41 µM); MIC90 (Clostridioides difficile): > 32 µg/mL; MIC (Prevotella nigrescens): ≤ 0.016 µg/mL; MIC50 (Prevotella nigrescens): ≤ 0.016 µg/mL; MIC90 (Prevotella nigrescens): ≤ 0.016 µg/mL; MIC (Parvimonas micra): 0.125 µg/mL (≈ 0.294 µM); MIC50 (Parvimonas micra): 0.125 µg/mL (≈ 0.294 µM); MIC90 (Parvimonas micra): 0.25 µg/mL (≈ 0.588 µM); MIC (Clostridium tertium): 8 µg/mL (≈ 18.8 µM); MIC50 (Clostridium tertium): 8 µg/mL (≈ 18.8 µM); MIC [3]: 0.06 µg/mL (≈ 0.141 µM); MIC50 [3]: 0.125 µg/mL (≈ 0.294 µM); MIC50 (Eggerthella lenta): 0.25 µg/mL (≈ 0.588 µM); MIC90 (Eggerthella lenta): 1 µg/mL (≈ 2.35 µM); MIC ([Clostridium] innocuum): 0.03 µg/mL (≈ 0.0706 µM); MIC [4]: ≤ 0.016 µg/mL; MIC50 [4]: 0.03 µg/mL (≈ 0.0706 µM); MIC (Hoylesella loescheii): ≤ 0.016 µg/mL; MIC (Thomasclavelia ramosa): 2 µg/mL (≈ 4.71 µM); MIC [5]: 0.125 µg/mL (≈ 0.294 µM); MIC (Hoylesella oralis): ≤ 0.016 µg/mL; MIC (Prevotella buccae): ≤ 0.016 µg/mL; MIC50 (Prevotella buccae): ≤ 0.016 µg/mL; MIC90 (Prevotella buccae): ≤ 0.016 µg/mL; MIC (Clostridium cadaveris): 0.06 µg/mL (≈ 0.141 µM); MIC50 (Clostridium perfringens): 0.5 µg/mL (≈ 1.18 µM); MIC90 (Clostridium perfringens): 2 µg/mL (≈ 4.71 µM); MIC [6]: 0.25 µg/mL (≈ 0.588 µM); MIC [7]: ≤ 0.016 µg/mL; MIC50 [7]: ≤ 0.016 µg/mL; MIC90 [7]: 0.25 µg/mL (≈ 0.588 µM); MIC [8]: 0.03 µg/mL (≈ 0.0706 µM); MIC50 (Lactobacillus): 0.5 µg/mL (≈ 1.18 µM); MIC90 (Lactobacillus): 4 µg/mL (≈ 9.41 µM); MIC (Bacteroides uniformis): > 1 µg/mL; MIC50 (Bacteroides uniformis): 2 µg/mL (≈ 4.71 µM); MIC50 (Prevotella bivia): ≤ 0.016 µg/mL; MIC90 (Prevotella bivia): > 32 µg/mL; MIC (Prevotella salivae): ≤ 0.016 µg/mL; MIC50 (Prevotella corporis): ≤ 0.016 µg/mL; MIC50 (Phocaeicola vulgatus): 0.03 µg/mL (≈ 0.0706 µM); MIC90 (Phocaeicola vulgatus): 1 µg/mL (≈ 2.35 µM); MIC50 (Fusobacterium mortiferum): 0.06 µg/mL (≈ 0.141 µM); MIC90 (Fusobacterium mortiferum): 0.125 µg/mL (≈ 0.294 µM); MIC50 (Bifidobacterium): 0.03 µg/mL (≈ 0.0706 µM); MIC90 (Bifidobacterium): > 32 µg/mL; MIC50 [9]: 4 µg/mL (≈ 9.41 µM); MIC90 [9]: > 32 µg/mL
